Assay results as given in patent US10633374B2, “Small molecule based antibody-recruiting compounds for cancer treatment” (YALE UNIVERSITY, priority 2015, dated 2020).
pKd: −log10 of the molar value.

Key:
recombinant uPAR = molecular target: T1, recombinant uPAR (Homo sapiens, UniProt Q03405); experiment: Fluorescence quenching titration of ARM-U2 derivatives with uPAR; format: binding; conditions: fluorescence titration of 100 nM derivative with increasing uPAR; read-out: Kd, solution equilibrium dissociation constant with uPAR
T1 construct: purchased R&D systems
T1 sequence (Q03405 23-305): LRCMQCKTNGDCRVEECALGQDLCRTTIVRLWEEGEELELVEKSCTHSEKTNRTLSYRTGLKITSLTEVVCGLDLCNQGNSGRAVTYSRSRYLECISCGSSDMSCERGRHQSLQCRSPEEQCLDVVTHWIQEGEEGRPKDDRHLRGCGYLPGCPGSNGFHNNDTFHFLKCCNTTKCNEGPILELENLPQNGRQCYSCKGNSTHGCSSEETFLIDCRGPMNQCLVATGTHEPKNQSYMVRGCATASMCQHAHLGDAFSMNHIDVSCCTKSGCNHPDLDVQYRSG
Protocol: Selected ARM-U2 derivatives were assayed for their ability to bind recombinant uPAR using a fluorescence quenching assay. […] Increasing concentrations of recombinant uPAR were mixed with each compound containing aliquot and the fluorescence of the solution measured following 1 h equilibration times. […] To confirm that the observation of uPAR dependent fluorescence quenching was indeed due to specific binding to uPAR and to validate ARM-U2 binding to uPAR specifically via the uPA binding site, a direct binding ELISA assay was developed. In this assay, clear 96-well high-binding plates from CoStar, were loaded with 100 μl/well of 50 nM recombinant uPAR 807-UK-100-CF from R&D systems prepared from a 100 μg/ml (approx. 2.1 μM) stock of uPAR in PBS and left overnight at room temperature to equilibrate. Following equilibration, the plate was washed with wash buffer 1× (400 μl/well of 0.05% Tween/PBS), blotted dry and blocked for 1 hr with 300 ul/well of 2% BSA/PBS. Following blocking, the plate was washed with 400 ul of the wash buffer and blotted dry. […] The absorbance at 450 nm was measured using an in-house Perkin-Elmer fluorescence plate reader.
All ARM-U2 derivatives were assessed for their ability to bind selectively to recombinant uPAR in vitro using a competitive ELISA binding assay. […] Selective binding to uPAR by ARM-U2 at the uPA binding site competes with uPAR-uPA binding which is required for a positive UV 450 nm absorbance signal. Increasing concentrations of ARM-U2 displace increasing amounts of uPAR from uPA which is detected by anti-uPAR/biotin labeled antibodies followed by avidin-HRP. The sigmoidal binding isotherm of absorbance at 450 nm vs log ARM-U2 concentration can then by fit by non-linear regression analysis to obtain the IC50 for ARM-U2/uPAR binding (Equation S2) which can then be translated into a KI for ARM-U2/uPAR binding using a competitive binding model adapted from the Cheng-Prusoff equation relating KI to IC50 (Equation S3). […]

uPAR (uPA binding site) = molecular target: T2, uPAR (uPA binding site) (Homo sapiens, UniProt Q03405); experiment: Competitive ELISA uPAR binding assay (immobilized urokinase); conditions: at the uPA binding site
T2 construct: purchased R&D systems
T2 sequence (Q03405 23-305): as above
Protocol: The affinity of ARM-U2 derivatives differing in both the length of the DNP-linker substituted at position 2 of ring C and the display of negative charge density (FIG. 8, Table 1) for uPAR were assayed using a competitive ELISA binding assay. The assay involves the immobilization of urokinase, a natural high affinity ligand for uPAR followed by the addition of a fixed concentration of recombinant uPAR protein and increasing concentrations of ARM-U2 which competes with urokinase for binding to the uPA binding site of uPAR. Following several washing steps, the amount of uPAR bound is quantified by a biotinylated anti-uPAR antibody and avidin-HRP and can be fit to a competitive binding model allowing for the extraction of the uPAR/ARM-U2 Kd.
All ARM-U2 derivatives were assessed for their ability to bind selectively to recombinant uPAR in vitro using a competitive ELISA binding assay. DMSO stock solutions of each ARM-U2 derivative stored at −20° C. were titrated into wells pre-coated with human urokinase (isolated from human urine, ProSpec 1 mg/ml deI water 18.5 μM) in the presence of uPAR. Selective binding to uPAR by ARM-U2 at the uPA binding site competes with uPAR-uPA binding which is required for a positive UV 450 nm absorbance signal. Increasing concentrations of ARM-U2 displace increasing amounts of uPAR from uPA which is detected by anti-uPAR/biotin labeled antibodies followed by avidin-HRP. The sigmoidal binding isotherm of absorbance at 450 nm vs log ARM-U2 concentration can then by fit by non-linear regression analysis to obtain the IC50 for ARM-U2/uPAR binding (Equation S2) which can then be translated into a KI for ARM-U2/uPAR binding using a competitive binding model adapted from the Cheng-Prusoff equation relating KI to IC50 (Equation S3). The ELISA experiments were performed as followed: To Corning high binding 96 well flat bottom plates was added 100 μl/well of 100 nM urokinase in sterile PBS. The plates were sealed and left to incubate at 4° C. overnight. The plates were then washed 1× with 200 μl wash buffer (PBS+0.05% Tween-20) and 1× with 400 μl wash buffer. The plates were blotted on paper towel and blocked for 1 h shaking at room temp with 300 μl of a solution of thermo superblock in PBS per well. Molecule dilutions into solutions of a fixed concentration (10 nM) of uPAR were prepared in 0.025% triton-X/PBS on a separate low binding plate during the blocking hour. The plates were again washed followed by the addition of 100 μl of the ARM-U2/uPAR solution with 0.1% final DMSO concentration. The solutions were mixed by multichannel pipette, sealed, and incubated for 2 h with shaking at room temperature. The plates were then washed 1× with 200 μl wash buffer (PBS+0.05% Tween-20) and 2× with 400 μl wash buffer. The plates were blotted on a paper towel followed by the addition of 100 μl/well of a solution of biotinylated anti-uPAR antibody in 1% BSA/PBS. (R&D Systems, 3.3 μl taken from 50 μg/250 μl-1000× stock) and incubation with shaking for 1 h at room temp. The plates were washed 1× with 200 μl wash buffer and 2× with 400 μl wash buffer and blotted on a paper towel. 100 μl of avidin-HRP (stock −500× from e-bioscience) were added per well, incubated 20 min with shaking at room temp followed by washing 1× with 200 μl wash buffer and 3× with 400 μl wash buffer. The plates were blotted dry with paper towel and 100 μl of TMB substrate was added to each well. The emergence of blue color was monitored and the reaction quenched with the addition of 50 μl of 2M sulfuric acid to each well followed by measuring the absorbance at 450 nm using a fluorescence plate reader. […]

immobilized uPAR = molecular target: T3, immobilized uPAR (Homo sapiens, UniProt Q03405); experiment: Direct ELISA binding assay on immobilized uPAR
T3 construct: purchased R&D systems 807-UK-100-CF
T3 sequence (Q03405 23-305): as above
Protocol: Selected ARM-U2 derivatives were assayed for their ability to bind recombinant uPAR using a fluorescence quenching assay. The compounds stored at −20° C. as DMSO stocks were diluted into PBS aliquots at a fixed 50 nM concentration. Increasing concentrations of recombinant uPAR were mixed with each compound containing aliquot and the fluorescence of the solution measured following 1 h equilibration times. […] To confirm that the observation of uPAR dependent fluorescence quenching was indeed due to specific binding to uPAR and to validate ARM-U2 binding to uPAR specifically via the uPA binding site, a direct binding ELISA assay was developed. In this assay, clear 96-well high-binding plates from CoStar, were loaded with 100 μl/well of 50 nM recombinant uPAR 807-UK-100-CF from R&D systems prepared from a 100 μg/ml (approx. 2.1 μM) stock of uPAR in PBS and left overnight at room temperature to equilibrate. Following equilibration, the plate was washed with wash buffer 1× (400 μl/well of 0.05% Tween/PBS), blotted dry and blocked for 1 hr with 300 ul/well of 2% BSA/PBS. Following blocking, the plate was washed with 400 ul of the wash buffer and blotted dry. […] The absorbance at 450 nm was measured using an in-house Perkin-Elmer fluorescence plate reader.

anti-DNP antibodies = experiment: Affinity for anti-DNP antibodies; format: binding

`O=C(O)c1cccc(Nc2cc(N3CCC[C@H](C(=O)NCCCOCCOCCOCCCNc4ccc([N+](=O)[O-])cc4[N+](=O)[O-])C3)c3noc4c3c2C(=O)c2ccccc2-4)c1` [1-ABT-1] was tested, and the pKd (recombinant uPAR) was 6.56 and the “uPAR binding affinity (order of magnitude)” value (uPAR (uPA binding site)) was “triple digit nanomolar binding affinity”.

In the case of `O=C1c2ccccc2-c2onc3c(N4CCC[C@H](C(=O)NCCOCCOCCOCCOCCOCCOCCOCCNc5ccc([N+](=O)[O-])cc5[N+](=O)[O-])C4)cc(Nc4ccc(S(=O)(=O)O)cc4S(=O)(=O)O)c1c23` [6-ABT-2], the pKd (recombinant uPAR) was 7.18 and the “binding to immobilized uPAR vs parent derivative” value (immobilized uPAR) was “much higher affinity than parent derivative 1-ABT-1”.

For `O=C1c2ccccc2-c2onc3c(N4CCC[C@@H](C(=O)NCCCOCCOCCOCCCNc5ncccn5)C4)cc(Nc4ccc(S(=O)(=O)O)cc4S(=O)(=O)O)c1c23` [6-ABT-4], the “affinity for anti-DNP antibodies” value (anti-DNP antibodies) was “no affinity for anti-DNP antibodies”.
